# Experimental data from PubChem BioAssay (NCI).
#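 Grown in 96-well plates, cells were treated for 48 hours with each compound at five concentrations. Insufficient inhibition: endpoint recorded as highest concentration tested. The concentration for 50% growth inhibition is given as GI50. The concentration for full growth arrest is given as TGI.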
# Assays:
# Assay in all cases: inhibition of tumour cell growth, NCI panel, 48 h
# UO-31 renal = system: UO-31 renal
# HCT-15 colon = system: HCT-15 colon
# NCI/ADR-RES ovarian = system: NCI/ADR-RES ovarian
# ACHN renal = system: ACHN renal
# SK-MEL-28 melanoma = system: SK-MEL-28 melanoma
# SK-OV-3 ovarian = system: SK-OV-3 ovarian
# COLO 205 colon = system: COLO 205 colon
# U251 CNS = system: U251 CNS
# OVCAR-4 ovarian = system: OVCAR-4 ovarian
# MOLT-4 leukemia = system: MOLT-4 leukemia
# CAKI-1 renal = system: CAKI-1 renal
# RXF 393 renal = system: RXF 393 renal
# SK-MEL-2 melanoma = system: SK-MEL-2 melanoma
# IGROV1 ovarian = system: IGROV1 ovarian
# M14 melanoma = system: M14 melanoma
# KM12 colon = system: KM12 colon
# UACC-257 melanoma = system: UACC-257 melanoma
# SR leukemia = system: SR leukemia
# OVCAR-8 ovarian = system: OVCAR-8 ovarian
# A549 NSCLC = system: A549 NSCLC
# SN12C renal = system: SN12C renal
# SK-MEL-5 melanoma = system: SK-MEL-5 melanoma
# DU-145 prostate = system: DU-145 prostate
# OVCAR-5 ovarian = system: OVCAR-5 ovarian
# HOP-92 NSCLC = system: HOP-92 NSCLC
# RPMI-8226 leukemia = system: RPMI-8226 leukemia
# PC-3 prostate = system: PC-3 prostate
# CCRF-CEM leukemia = system: CCRF-CEM leukemia
# LOX IMVI melanoma = system: LOX IMVI melanoma
# NCI-H522 lung = system: NCI-H522 lung
# NCI-H460 lung = system: NCI-H460 lung
# HT29 colon = system: HT29 colon
# MCF7 breast = system: MCF7 breast
# HL-60(TB) leukemia = system: HL-60(TB) leukemia
# A498 renal = system: A498 renal
# HCC-2998 colon = system: HCC-2998 colon
# UACC-62 melanoma = system: UACC-62 melanoma
# SNB-75 CNS = system: SNB-75 CNS
# K-562 leukemia = system: K-562 leukemia
# SF-295 CNS = system: SF-295 CNS
# HCT-116 colon = system: HCT-116 colon
# SF-539 CNS = system: SF-539 CNS
# OVCAR-3 ovarian = system: OVCAR-3 ovarian
# SW-620 colon = system: SW-620 colon
# NCI-H23 lung = system: NCI-H23 lung
# BT-549 breast = system: BT-549 breast
# T-47D breast = system: T-47D breast
# NCI-H226 lung = system: NCI-H226 lung
# SNB-19 CNS = system: SNB-19 CNS
# HOP-62 NSCLC = system: HOP-62 NSCLC
# 786-0 renal = system: 786-0 renal
# MDA-MB-231 breast = system: MDA-MB-231 breast
# MALME-3M melanoma = system: MALME-3M melanoma
# SF-268 CNS = system: SF-268 CNS
# TK-10 renal = system: TK-10 renal
# HS 578T breast = system: HS 578T breast
smiles,measurement,setting,value
COc1cc2c(Nc3ccc(NC(=O)Nc4ccc(Cl)c(C(F)(F)F)c4)c(Cl)c3)ncnc2cc1OCCCN1CCN(C)CC1,GI50,UO-31 renal,> 100 µM
same,TGI,UO-31 renal,> 100 µM
same,GI50,HCT-15 colon,3.9 µM
same,TGI,HCT-15 colon,> 100 µM
same,GI50,NCI/ADR-RES ovarian,54.4 µM
same,TGI,NCI/ADR-RES ovarian,> 100 µM
same,GI50,ACHN renal,2.24 µM
same,TGI,ACHN renal,> 100 µM
O=C1Nc2ccc(Br)cc2C12CC(c1ccccc1)=NN2 (stereo not given),GI50,SK-MEL-28 melanoma,7.48 µM
same,TGI,SK-MEL-28 melanoma,> 100 µM
same,GI50,SK-OV-3 ovarian,4.44 µM
same,TGI,SK-OV-3 ovarian,87.3 µM
same,GI50,COLO 205 colon,3.79 µM
same,TGI,COLO 205 colon,15.2 µM
same,GI50,U251 CNS,3.84 µM
same,TGI,U251 CNS,19.2 µM
same,GI50,OVCAR-4 ovarian,5.31 µM
same,TGI,OVCAR-4 ovarian,77.6 µM
same,GI50,MOLT-4 leukemia,5.04 µM
same,TGI,MOLT-4 leukemia,30.5 µM
same,GI50,CAKI-1 renal,2.8 µM
same,TGI,CAKI-1 renal,16.6 µM
same,GI50,RXF 393 renal,2.14 µM
same,TGI,RXF 393 renal,6.05 µM
same,GI50,SK-MEL-2 melanoma,4.48 µM
same,TGI,SK-MEL-2 melanoma,25.6 µM
same,GI50,IGROV1 ovarian,3.51 µM
same,TGI,IGROV1 ovarian,29.3 µM
same,GI50,M14 melanoma,3.25 µM
same,TGI,M14 melanoma,> 100 µM
same,GI50,KM12 colon,3.86 µM
same,TGI,KM12 colon,38.8 µM
same,GI50,UACC-257 melanoma,5.98 µM
same,TGI,UACC-257 melanoma,> 100 µM
same,GI50,SR leukemia,2.88 µM
same,TGI,SR leukemia,19.5 µM
same,GI50,OVCAR-8 ovarian,5.7 µM
same,TGI,OVCAR-8 ovarian,39.2 µM
same,GI50,A549 NSCLC,4.53 µM
same,TGI,A549 NSCLC,> 100 µM
same,GI50,SN12C renal,6.8 µM
same,TGI,SN12C renal,51.2 µM
same,GI50,UO-31 renal,4.46 µM
same,TGI,UO-31 renal,> 100 µM
same,GI50,SK-MEL-5 melanoma,3.2 µM
same,TGI,SK-MEL-5 melanoma,14.1 µM
same,GI50,DU-145 prostate,3.35 µM
same,TGI,DU-145 prostate,16.4 µM
same,GI50,OVCAR-5 ovarian,16.7 µM
same,TGI,OVCAR-5 ovarian,> 100 µM
same,GI50,HCT-15 colon,3.56 µM
same,TGI,HCT-15 colon,48.8 µM
same,GI50,HOP-92 NSCLC,1.66 µM
same,TGI,HOP-92 NSCLC,26.2 µM
same,GI50,RPMI-8226 leukemia,3.07 µM
same,TGI,RPMI-8226 leukemia,12.2 µM
same,GI50,PC-3 prostate,2.28 µM
same,TGI,PC-3 prostate,18.4 µM
same,GI50,CCRF-CEM leukemia,3.67 µM
same,TGI,CCRF-CEM leukemia,37.7 µM
same,GI50,LOX IMVI melanoma,7.21 µM
same,TGI,LOX IMVI melanoma,22.9 µM
same,GI50,NCI-H522 lung,3.56 µM
same,TGI,NCI-H522 lung,9.43 µM
same,GI50,NCI-H460 lung,3.76 µM
same,TGI,NCI-H460 lung,19.4 µM
same,GI50,HT29 colon,4.08 µM
same,TGI,HT29 colon,13 µM
same,GI50,MCF7 breast,2.48 µM
same,TGI,MCF7 breast,64.5 µM
same,GI50,NCI/ADR-RES ovarian,3.89 µM
same,TGI,NCI/ADR-RES ovarian,35.8 µM
same,GI50,HL-60(TB) leukemia,2.77 µM
same,TGI,HL-60(TB) leukemia,8.47 µM
same,GI50,A498 renal,2.24 µM
same,TGI,A498 renal,8.38 µM
same,GI50,HCC-2998 colon,15.9 µM
same,TGI,HCC-2998 colon,65.1 µM
same,GI50,UACC-62 melanoma,5.38 µM
same,TGI,UACC-62 melanoma,27.1 µM
same,GI50,SNB-75 CNS,1.35 µM
same,TGI,SNB-75 CNS,6.91 µM
same,GI50,K-562 leukemia,2.84 µM
same,TGI,K-562 leukemia,31 µM
same,GI50,SF-295 CNS,2.77 µM
same,TGI,SF-295 CNS,9.5 µM
same,GI50,HCT-116 colon,4.27 µM
same,TGI,HCT-116 colon,17 µM
same,GI50,SF-539 CNS,2.1 µM
same,TGI,SF-539 CNS,6.02 µM
same,GI50,OVCAR-3 ovarian,3.26 µM
same,TGI,OVCAR-3 ovarian,13.9 µM
same,GI50,SW-620 colon,3.87 µM
same,TGI,SW-620 colon,23.8 µM
same,GI50,NCI-H23 lung,5.43 µM
same,TGI,NCI-H23 lung,77.2 µM
same,GI50,BT-549 breast,13 µM
same,TGI,BT-549 breast,74.3 µM
same,GI50,T-47D breast,5.48 µM
same,TGI,T-47D breast,> 100 µM
same,GI50,NCI-H226 lung,6.93 µM
same,TGI,NCI-H226 lung,> 100 µM
same,GI50,SNB-19 CNS,9.25 µM
same,TGI,SNB-19 CNS,> 100 µM
same,GI50,HOP-62 NSCLC,6.17 µM
same,TGI,HOP-62 NSCLC,> 100 µM
same,GI50,786-0 renal,5.66 µM
same,TGI,786-0 renal,48.5 µM
same,GI50,ACHN renal,7.96 µM
same,TGI,ACHN renal,> 100 µM
same,GI50,MDA-MB-231 breast,6.19 µM
same,TGI,MDA-MB-231 breast,29.5 µM
same,GI50,MALME-3M melanoma,2.04 µM
same,TGI,MALME-3M melanoma,6.93 µM
same,GI50,SF-268 CNS,9.25 µM
same,TGI,SF-268 CNS,> 100 µM
CCN(CC)c1ccc2nc3ccc(N=Nc4ccc(N(C)C)cc4)cc3[n+](-c3ccccc3)c2c1,GI50,SK-OV-3 ovarian,0.39 µM
same,TGI,SK-OV-3 ovarian,13.7 µM
same,GI50,OVCAR-4 ovarian,0.0243 µM
same,TGI,OVCAR-4 ovarian,0.0929 µM
same,GI50,CAKI-1 renal,0.146 µM
same,TGI,CAKI-1 renal,0.434 µM
same,GI50,TK-10 renal,0.389 µM
same,TGI,TK-10 renal,2.1 µM
same,GI50,SK-MEL-2 melanoma,0.369 µM
same,TGI,SK-MEL-2 melanoma,2.05 µM
same,GI50,IGROV1 ovarian,0.0934 µM
same,TGI,IGROV1 ovarian,1.53 µM
same,GI50,OVCAR-8 ovarian,0.11 µM
same,TGI,OVCAR-8 ovarian,1.48 µM
same,GI50,HOP-92 NSCLC,0.17 µM
same,TGI,HOP-92 NSCLC,0.811 µM
same,GI50,RPMI-8226 leukemia,0.0314 µM
same,TGI,RPMI-8226 leukemia,1.35 µM
same,GI50,PC-3 prostate,0.156 µM
same,TGI,PC-3 prostate,2.56 µM
same,GI50,HL-60(TB) leukemia,0.0739 µM
same,TGI,HL-60(TB) leukemia,0.89 µM
same,GI50,SF-295 CNS,0.0376 µM
same,TGI,SF-295 CNS,0.191 µM
same,GI50,NCI-H23 lung,0.0809 µM
same,TGI,NCI-H23 lung,1.37 µM
same,GI50,HS 578T breast,0.448 µM
same,TGI,HS 578T breast,> 100 µM
same,GI50,BT-549 breast,0.424 µM
same,TGI,BT-549 breast,2.57 µM
same,GI50,786-0 renal,0.247 µM
same,TGI,786-0 renal,2.39 µM
same,GI50,MDA-MB-231 breast,0.0831 µM
same,TGI,MDA-MB-231 breast,0.426 µM
